Assay results taken from BindingDB's records for doi:10.1016/j.bioorg.2015.09.001 (Universiti Teknologi Mara (Uitm), 2015).

Each molecule was assayed against Alpha-glucosidase MAL12 (Saccharomyces cerevisiae (strain ATCC 204508 / S288c), UniProt P53341) (assay: α-Glucosidase Inhibitory Activity).
Method: The 135 µL of 50 mM phosphate saline buffer pH (6.8) was added in the 96-well plate and 20 µL of test sample with 70% DMSO added into the wells. The solution of Enzyme 20 µL was added into the wells, and incubated the plate for 15 min. After incubation pre-read of the plate was taken by the spectra max. Afterward 25 µL of the substrate (pNPG) was added and a reading was taken on spectra max at 400 nm for 30 min. The normal reading is taken and the percent inhibition was calculated.

Chain of Alpha-glucosidase MAL12 (P53341 whole entry): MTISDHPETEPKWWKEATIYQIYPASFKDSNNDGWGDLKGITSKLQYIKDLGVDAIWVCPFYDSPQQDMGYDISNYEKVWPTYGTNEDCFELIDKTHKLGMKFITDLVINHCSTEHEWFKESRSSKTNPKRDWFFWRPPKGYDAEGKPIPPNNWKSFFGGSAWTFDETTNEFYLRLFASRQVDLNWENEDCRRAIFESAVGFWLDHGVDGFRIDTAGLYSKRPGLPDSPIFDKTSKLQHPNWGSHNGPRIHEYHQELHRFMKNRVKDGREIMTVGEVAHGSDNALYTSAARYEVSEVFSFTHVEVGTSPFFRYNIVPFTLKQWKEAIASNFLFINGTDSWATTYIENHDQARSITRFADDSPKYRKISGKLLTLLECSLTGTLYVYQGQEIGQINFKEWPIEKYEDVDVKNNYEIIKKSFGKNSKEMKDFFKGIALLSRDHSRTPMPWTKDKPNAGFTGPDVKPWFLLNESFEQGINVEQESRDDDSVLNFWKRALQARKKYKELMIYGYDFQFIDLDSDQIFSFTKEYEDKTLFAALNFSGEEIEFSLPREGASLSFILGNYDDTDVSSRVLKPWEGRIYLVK

Row | SMILES | IC50 [µM]
1 | O=C(N/N=C/c1cc(O)ccc1O)c1cc2ccccc2[nH]1 [(E)-N'-(2,5-dihydroxybenzylidene)-1H-indole-2-carbohydrazide (3)] | 144
2 | COc1ccc(O)c(/C=N/NC(=O)c2cc3ccccc3[nH]2)c1 [(E)-N'-(2-hydroxy-5-methoxybenzylidene)-1H-indole-2-carbohydrazide (13)] | 49.2
3 | O=C(N/N=C/c1ccccc1O)c1cc2ccccc2[nH]1 [(E)-N'-(2-hydroxybenzylidene)-1H-indole-2-carbohydrazide (10)] | 42.6
4 | O=C(N/N=C/c1ccc(F)c(Br)c1)c1cc2ccccc2[nH]1 [(E)-N'-(3-Bromo-4-fluorobenzylidene)-1H-indole-2-carbohydrazide (19)] | 26.6
5 | COc1ccc(/C=N/NC(=O)c2cc3ccccc3[nH]2)c(I)c1O [(E)-N'-(3-hydroxy-2-iodo-4-methoxybenzylidene)-1H-indole-2-carbohydrazide (14)] | 54.6
6 | COc1ccc(/C=N/NC(=O)c2cc3ccccc3[nH]2)cc1O [(E)-N'-(3-hydroxy-4-methoxybenzylidene)-1H-indole-2-carbohydrazide (11)] | 191
7 | O=C(N/N=C/c1ccc(Cl)cc1)c1cc2ccccc2[nH]1 [(E)-N'-(4-Chlorobenzylidene)-1H-indole-2-carbohydrazide (27)] | 32.1
8 | COc1cc(/C=N/NC(=O)c2cc3ccccc3[nH]2)ccc1O [(E)-N'-(4-hydroxy-3-methoxybenzylidene)-1H-indole-2-carbohydrazide (8)] | 155
9 | O=C(N/N=C/c1ccc(O)cc1)c1cc2ccccc2[nH]1 [(E)-N'-(4-hydroxybenzylidene)-1H-indole-2-carbohydrazide (9)] | 206

Further lines, results first:

Row | IC50 [µM] | SMILES
10 | 86.5 | O=C(N/N=C/c1cccc(O)c1O)c1cc2ccccc2[nH]1 [(E)-N'-(2,3-dihydroxybenzylidene)-1H-indole-2-carbohydrazide (6)]
11 | 49.2 | O=C(N/N=C/c1c(O)cc(O)cc1O)c1cc2ccccc2[nH]1 [(E)-N'-(2,4,6-trihydroxybenzylidene)-1H-indole-2-carbohydrazide (2)]
12 | 2.3 | O=C(N/N=C/c1cc(O)c(O)c(O)c1)c1cc2ccccc2[nH]1 [(E)-N'-(3,4,5-trihydroxybenzylidene)-1H-indole-2-carbohydrazide (1)]
13 | 41 | O=C(N/N=C/c1ccc(O)c(O)c1)c1cc2ccccc2[nH]1 [(E)-N'-(3,4-dihydroxybenzylidene)-1H-indole-2-carbohydrazide (4)]
14 | 226 | O=C(N/N=C/c1cc(O)cc(O)c1)c1cc2ccccc2[nH]1 [(E)-N'-(3,5-dihydroxybenzylidene)-1H-indole-2-carbohydrazide (7)]
